In paper PMC12592400, “A unique inhibitor conformation selectively targets the DNA polymerase PolC of Gram-positive priority pathogens” (Nature Communications, 2025):
In brackets after ≈: the same amount, converted by molar mass. Like-named read-outs stand apart in the source and are kept apart here.

Columns and labels:
[1] = test system: Escherichia coli ATCC 25922; assay: Broth microdilution MIC; type: cell-based
Method: (§1) Minimal inhibitory concentrations (MICs) were determined by WuXi Apptec, on behalf of Acurx Pharmaceuticals, Inc., for the Gram-positive pathogens: Enterococcus faecium ATCC 700221 (VRE; vancomycin-resistant), Enterococcus faecalis ATCC 29212, Staphylococcus aureus NRS384 (MRSA; methicillin-resistant), Staphylococcus aureus ATCC 29213 (MSSA; methicillin-sensitive), and Streptococcus pneumoniae ATCC 49619 (PRSP; penicillin-resistant). As a control, Gram-negative Escherichia coli ATCC 25922 was included. All strains were obtained from ATCC with the exception of Staphylococcus aureus NRS384, which was obtained from NARSA (Network on Antimicrobial Resistance in Staphylococcus aureus, now part of BEI resources). Bacteria were cultured according to the manuals provided by the suppliers and stored in 25% glycerol (final concentration) at –80 °C.
(§2) Bacterial strains were streaked out onto MHA plates (Mueller-Hinton II Agar; BD-211438) and incubated at 37 °C for 20 h except for S. pneumoniae and Enterococci, which were streaked on blood agar (Huankai-24070). S. pneumoniae was incubated in 5% CO2. Single colonies were suspended in 5 mL sterile saline, the turbidity was adjusted to 0.20 (Siemens MicroScan turbidity metre; equal to ~1.0 × 10^8 colony forming units (CFU)/mL) and then diluted 200x in MHIIB (Mueller-Hinton II […] (BD-211438)) medium. The MHIIB media was supplemented with 5% Lysed Horse Blood (Shanghai YuanMu Biological Technology Co. Ltd. YM-U161) for S. pneumoniae.
(§3) ACX compounds were dissolved in pure DMSO (Sigma 276855) to a concentration of 20 mg/mL. From this, twofold serial dilutions (from […]) in DMSO were transferred to a 96-well source-plate (Axygen-wipp02280) with pure DMSO as a control. 2 µL from the source plate was then transferred into 96-well culture plates (Costar 3788) and inoculated with 198 µL of the bacterial suspension so that each well contained ~5.0 × 10^5 CFU/mL bacteria, 1% DMSO and serially diluted compounds at 0 µg/mL and 0.0625-64 µg/mL in 100 µl medium. For NRS384, which was tested in a separate experiment, 99 µL of bacterial suspension was added to 1 µL of compound. The plates were incubated in ambient atmosphere at 37 °C for 20 h.

[2] = test system: Enterococcus faecalis ATCC 29212; assay: Broth microdilution MIC; type: cell-based
Method: as §1, §2, §3

[3] = test system: Enterococcus faecium ATCC 700221 (VRE; vancomycin-resistant); assay: Broth microdilution MIC; type: cell-based; settings: for MIC: Enterococcus faecium, read-out: Measured MIC; for Measured MIC: Table 2, polC WT, strain ATCC 700221
Method: as §1, §2, §3

[4] = test system: Staphylococcus aureus ATCC 29213 (MSSA; methicillin-sensitive); assay: Broth microdilution MIC; type: cell-based; settings: read-out: Measured MIC
Method: as §1, §2, §3

[5] = test system: Streptococcus pneumoniae ATCC 49619 (PRSP; penicillin-resistant); assay: Broth microdilution MIC; type: cell-based; settings: read-out: Measured MIC
Method: as §1, §2, §3

[6] = test system: Staphylococcus aureus NRS384 (MRSA; methicillin-resistant); assay: Broth microdilution MIC; type: cell-based; settings: read-out: Measured MIC
Method: as §1, §2, §3

[7] = test system: E. faecium strains with polC mutations (A1281T, F1276I, F1276L, F1276S); assay: Cross-resistance MIC of reduced susceptible E. faecium strains; type: cell-based, Enterococcus faecium; settings: for raise of MIC by A1281T: E. faecium polC A1281T versus WT (Table 2); for MIC: Enterococcus faecium
Method: Strains with reduced susceptibility to ACX compounds were generated by WuXi Apptec on behalf of Acurx Pharmaceuticals, Inc., using E. faecium ATCC 700221 as parental strain.
Agar MICs for the wild-type strain were determined on Blood agar (Huankai). Compounds and linezolid were dissolved in 100% DMSO and vancomycin in ultrapure water. Strains were inoculated onto agar plates, incubated at 37 °C for 20-24 h after which colonies were suspended in sterile 0.9% saline at different bacterial concentrations. 5 μL of bacterial suspensions was individually spotted on agar plates supplemented with compounds at different concentrations, resulting in final concentrations of 10^–1, 10^–2, 10^–3, 10^–4, 10^–5, 10^–6, and 10^–7 per spot. After incubation for 20-24 h, bacterial growth was assessed by visual inspection.
For frequency of resistance (FOR) studies, colonies from the agar plate were suspended into sterile 0.9% saline to get 10^8-10^9 CFU bacterial cells per mL. […] The suspensions were also serially diluted with 0.9% saline and spotted onto agar to determine the actual inoculum. All agar plates were incubated at 37 °C for 48 h. FOR was defined as colony number on each compound-containing plate per CFU number of actual inoculum. Resistant colonies were subcultured on the corresponding compound plates to confirm that colonies were resistant and stable.
Confirmed resistant colonies were used for cross-resistance studies, as described above.
Paired-end short read sequencing data from selected mutants (generated by BGISEQ) as well as the corresponding wild-type parental strain was analysed against the reference genomes for E. faecium strain ATCC 700221 (https://genomes.atcc.org/genomes/f9d13a716ccb4f78) using Geneious R10.2.6 (Biomatters Ltd). Variants were called using the Find Variants/SNPs function with a minimum coverage of 10 and a minimum frequency of 0.8. […] This identified the following mutations in the polC gene: D1103Y in strain Efa4; F1276L in strains Efa030, Efa038, and Efa039; F1276I in strains Efa1 and Efa037; F1276S in strain Efa3; A1281T in strains Efa036, Efa040 and Efa041. Strains Efa036, Efa039, and Efa040 each had only one polymorphism identified.

[8] = ATCC25922, E. coli ATCC 25922, Table 1, single replicate, read-out: Measured MIC
[9] = ATCC29212, E. faecalis ATCC 29212, Table 1, single replicate, read-out: Measured MIC
[10] = E. faecium VRE ATCC 700221, Table 1, single replicate
[11] = S. aureus ATCC 29213, Table 1, single replicate
[12] = S. pneumoniae PRSP ATCC 49619, Table 1, single replicate
[13] = S. aureus MRSA NRS 384, Table 1, independent experiment
[14] = read-out: Measured MIC, polC A1281T, strain Efa036, selected on 2 mg/L ACX-641
[15] = read-out: Measured MIC, polC A1281T, strain Efa040, selected on 4 mg/L ACX-671
[16] = read-out: Measured MIC, polC F1276I, strain Efa037, selected on 4 mg/L ACX-641
[17] = read-out: Measured MIC, polC F1276L, strain Efa030, selected on 16 mg/L ACX-728
[18] = read-out: Measured MIC, polC F1276S, strain Efa3, selected on 16 mg/L ACX-728

SMILES | MIC [1, 8] [µg/mL] | MIC [2, 9] [µg/mL] | MIC [3, 10] [µg/mL] | Measured MIC [3] [µg/mL] | MIC [4, 11] [µg/mL] | MIC [5, 12] [µg/mL] | MIC [6, 13] [µg/mL] | raise of MIC by A1281T [7] | MIC [7, 14] [µg/mL] | MIC [7, 15] [µg/mL] | MIC [7, 16] [µg/mL] | MIC [7, 17] [µg/mL] | MIC [7, 18] [µg/mL] | increased potency compared to IBZ ([3]; against Gram-positive bacteria, including MRSA and VRE (Table 1)) | MIC ([1]; ATCC25922, read-out: Measured MIC) [µg/mL] | MIC ([2]; ATCC29212, read-out: Measured MIC) [µg/mL] | MIC [3] [µg/mL] | MIC [4] [µg/mL] | MIC [5] [µg/mL] | MIC [6] [µg/mL]
O=c1[nH]c(NCc2ccc(Cl)c(Cl)c2)nc2ncn(CCN3CCOCC3)c12 [IBZ, N^2-(3,4-dichlorobenzyl)-7-(2-[1-morpholinyl]ethyl)guanine] | > 64 | 8 (≈ 18.9 µM) | 2 (≈ 4.72 µM) | 2 | 8 (≈ 18.9 µM) | 2 (≈ 4.72 µM) | 8 (≈ 18.9 µM) | up to eightfold | 16 | 8 | > 64 | > 64 | 16 |  |  |  |  |  |  | 
O=c1[nH]c(NCc2ccc3c(c2)OC(F)(F)O3)nc2c(F)nn(CCO)c12 [ACX-801, 5-(((2,2-difluorobenzo[d][1,3]dioxol-5-yl)methyl)amino)-3-fluoro-1-(2-hydroxyethyl)-1,6-dihydro-7H-pyrazolo[4,3-d]pyrimidin-7-one] | > 64 | 2 (≈ 5.22 µM) | 1 (≈ 2.61 µM) | 1 | 2 (≈ 5.22 µM) | 4 (≈ 10.4 µM) | 2 (≈ 5.22 µM) | up to 32 fold | 16 | 32 | > 64 | 64 | 32 | 2- to 4 fold |  |  |  |  |  | 
CC(=O)NC[C@H]1CN(c2ccc(N3CCOCC3)c(F)c2)C(=O)O1 [LZD, linezolid] |  |  |  | 4 |  |  |  |  | 4 | 4 | 4 | 4 | 4 |  | > 64 | 2 (≈ 5.93 µM) | 4 (≈ 11.9 µM) | 4 (≈ 11.9 µM) | 1 (≈ 2.96 µM) | 2 (≈ 5.93 µM)
